Assays:
redroot pigweed = test: Herbicidal effects against weeds (post emergence), redroot pigweed; format: in vivo; conditions: post emergence spray, evaluated two weeks after treatment
Experimental: (§1) Herbicidal Effects Against Weeds (Post Emergence)
(§2) After filling 300 g field soil in jiffypot™ having diameter of 10 cm, the soil was steam sterilized. Seeds of velvetleaf, redroot pigweed, tall morningglory and corn onto the surface of the soil were scattered, and then covered with the soil to a thickness of 0.5 cm for the weed, 1 cm for the crop. When the weed and the crop reached the designated growth stage, they were treated with the compound to be tested.
(§3) Preparation of the Test Solution and the Method of Treatment
(§4) The compound to be tested was dissolved in acetone which contain Tween 20™ and diluted with deionized water to prepare the test solution for 10 g/a and 1 g/a use. The test solution was sprayed on the pots in a device for spraying using spraygun.
(§5) Method of Indicating the Effect and Phytotoxicity
(§6) The effect of the compound tested on the weeds and phytotoxicity on the crops were evaluated two weeks after treatment with the compound as 6 grades from 0 to 5 shown in the Table 9 and 10.
(§7) In the Table 11 and 12, the herbicidal effects were indicated by the following evaluation index.

velvetleaf = test: Herbicidal effects against weeds (post emergence), velvetleaf; format: in vivo; conditions: post emergence spray, evaluated two weeks after treatment
Experimental: as §1, §2, §3, §4, §5, §6, §7

corn = test: Post emergence test, phytotoxicity on the crop corn; format: in vivo; conditions: post emergence spray, evaluated two weeks after treatment
Experimental: as §1, §2, §3, §4, §5, §6
The phytotoxicity was indicated by the following evaluation index.

melting point	SMILES	Evaluation index Redroot pigweed (redroot pigweed; 10 g/a)	Evaluation index Velvet leaf (velvetleaf; 10 g/a)	Evaluation index Redroot pigweed (redroot pigweed; 1 g/a)	Evaluation index Velvet leaf (velvetleaf; 1 g/a)	other results
	CCC(=O)N(c1cc(-n2nc3ccc(Cl)cn3c2=O)c(F)cc1C#N)S(=O)(=O)CC [A-7]	5 (maximum *all dead) 100)	5 (maximum *all dead) 100)			
148 to 150 °C	CC(C)c1sc(F)c(-n2nc3ccc(Cl)cn3c2=O)c1C#N [Compound No. A-18, 6-Chloro-2-(4-cyano-2-fluoro-5-isopropylthiophenyl)-1,2,4-triazolo[4,3-a]pyridin-3(2H)-one]					
	CCS(=O)(=O)Nc1cc(-n2nc3n(c2=O)CC(C)S3)c(F)cc1C#N (stereo not shown) [C-4]	5 (maximum *all dead) 100)	5 (maximum *all dead) 100)	5 (maximum *all dead) 100)	5 (maximum *all dead) 100)	
	CCS(=O)(=O)N(C(=O)C(C)(C)C)c1cc(-n2nc3ccc(Cl)cn3c2=O)c(F)cc1C#N [A-8]	5 (maximum *all dead) 100)	5 (maximum *all dead) 100)	5 (maximum *all dead) 100)	5 (maximum *all dead) 100)	
190 to 194 °C	CCC(=O)NS(=O)(=O)c1cc(-n2nc3ccc(Cl)cn3c2=O)c(F)cc1C#N [Compound No. A-20, 5-(6-Chloro-2,3-dihydro-3-oxo-1,2,4-triazolo[4,3-a]pyridin-2-yl)-2-cyano-4-fluoro-N-propionylbenzenesul fonamide]					
183 to 185 °C	C=CCOc1cc(-n2nc3ccc(Cl)cn3c2=O)c(F)cc1C#N [Compound No. A-13, 2-(5-Allyloxy-4-cyano-2-fluorophenyl)-6-chloro-1,2,4-triazolo[4,3-a]pyridin-3(2H)-one]					
	CCCS(=O)(=O)Nc1cc(-n2nc3ccc(Cl)cn3c2=O)c(F)cc1[N+](=O)[O-] [A-40]	5 (maximum *all dead) 100)	5 (maximum *all dead) 100)			
162 to 165 °C	CCOC(=O)C=Cc1cc(-n2nc3ccc(Cl)cn3c2=O)c(F)cc1Cl [A-42, Ethyl 2-chloro-4-fluoro-5-(6-chloro-2,3-dihydro-3-oxo-1,2,4-triazolo[4,3-a]pyridin-2-yl)cinnamate]					
	CCOC(=O)C(C)Oc1cc(-n2nc3ccc(Cl)cn3c2=O)c(F)cc1Cl (stereo not shown) [A-28]	5 (maximum *all dead) 100)	5 (maximum *all dead) 100)	5 (maximum *all dead) 100)	4 (maximum 87.6 to 99.9)	
	C=CCOc1cc(-n2nc3ccc(Cl)cn3c2=O)c(F)cc1Cl [Compound No. A-24]	5 (maximum *all dead) 100)	5 (maximum *all dead) 100)	5 (maximum *all dead) 100)	4 (maximum 87.6 to 99.9)	
	CC(C)S(=O)(=O)Nc1cc(-n2nc3ccc(Cl)cn3c2=O)c(F)cc1[N+](=O)[O-] [A-41]	5 (maximum *all dead) 100)	5 (maximum *all dead) 100)	5 (maximum *all dead) 100)	5 (maximum *all dead) 100)	
	COC(=O)C(Cl)Cc1cc(-n2nc3ccc(Cl)cn3c2=O)c(F)cc1Cl (stereo not shown) [Compound No. A-43, Methyl 2-chloro-3-[2-chloro-4-fluoro-5-(6-chloro-2,3-dihydro-3-oxo-1,2,4-triazolo[4,3-a]pyridin-2-yl)phenyl]propionate]	5 (maximum *all dead) 100)	5 (maximum *all dead) 100)	5 (maximum *all dead) 100)	5 (maximum *all dead) 100)	Evaluation index Corn (phytotoxicity) (corn; 1 g/a): 0 (no effect 0); Evaluation index Corn (phytotoxicity) (corn; 10 g/a): 0 (no effect 0)
	CCS(=O)(=O)Nc1cc(-n2nc3ccc(Br)cn3c2=O)ccc1C#N [A-45]			5 (maximum *all dead) 100)	5 (maximum *all dead) 100)	
	C#CC(C)Oc1cc(-n2nc3ccc(Cl)cn3c2=O)c(F)cc1Cl (stereo not shown) [A-26]	5 (maximum *all dead) 100)	5 (maximum *all dead) 100)	5 (maximum *all dead) 100)	5 (maximum *all dead) 100)	
140 to 142 °C	COc1cc(-n2nc3ccc(Cl)cn3c2=O)c(F)cc1Cl [Compound No. A-23, 6-Chloro-2-(4-chloro-2-fluoro-5-methoxyphenyl)-1,2,4-triazolo[4,3-a]pyridin-3(2H)-one]					
	CCS(=O)(=O)Nc1cc(-n2nc3n(c2=O)CCCN3C)c(F)cc1C#N [Compound No. F-2, 5,6,7,8-Tetrahydro-8-methyl-2-(4-cyano-5-ethylsulfonylamino-2-fluorophenyl)-[1,2,4]triazolo [4,3-a]pyrimidin-3(2H)-one]	5 (maximum *all dead) 100)	5 (maximum *all dead) 100)	5 (maximum *all dead) 100)	4 (maximum 87.6 to 99.9)	Evaluation index Corn (phytotoxicity) (corn; 1 g/a): 1 (small 0.1 to 12.5); Evaluation index Corn (phytotoxicity) (corn; 10 g/a): 3 (big 25.1 to 50.0)
209 to 211 °C	C#CCOc1cc(-n2nc3ccc(Cl)cn3c2=O)c(F)cc1C#N [Compound No. A-14, 6-Chloro-2-(4-cyano-2-fluoro-5-propargyloxyphenyl)-1,2,4-triazolo[4,3-a]pyridin-3(2H)-one]					
176 to 178 °C	C#CCN(c1cc(-n2nc3ccc(Cl)cn3c2=O)c(F)cc1C#N)S(=O)(=O)CC [Compound No. A-5, 6-Chloro-2-[4-cyano-5-(N-ethanesulfonyl-N-propargylamino)-2-fluorophenyl]-1,2,4-triazolo[4,3-a]pyridin-3(2H)-one]					
	C=C(Cl)COc1cc(-n2nc3ccc(Cl)cn3c2=O)c(F)cc1Cl [A-61]	5 (maximum *all dead) 100)	4 (maximum 87.6 to 99.9)			
154 to 157 °C	CNS(=O)(=O)c1cc(-n2nc3ccc(Cl)cn3c2=O)c(F)cc1C#N [Compound No. A-21, 5-(6-Chloro-2,3-dihydro-3-oxo-1,2,4-triazolo[4,3-a]pyridin-2-yl)-2-cyano-4-fluoro-N-methylbenzenesulfonamide]					
120 to 123 °C	CC(C)OC(=O)c1cc(-n2nc3ccc(Cl)cn3c2=O)c(F)cc1Cl [Compound No. A-33, Isopropyl 2-chloro-4-fluoro-5-(6-chloro-2,3-dihydro-3-oxo-1,2,4-triazolo[4,3-a]pyridin-2-yl)benzoate]					
	CC(C)S(=O)(=O)Nc1cc(-n2nc3ccc(Cl)cn3c2=O)c(F)cc1C#N [A-11]	5 (maximum *all dead) 100)	5 (maximum *all dead) 100)			
	CCOC(=O)COc1cc(-n2nc3cc(C)ccn3c2=O)c(F)cc1Cl [A-55]	5 (maximum *all dead) 100)	4 (maximum 87.6 to 99.9)			
145 to 147 °C	C#CCOc1cc(-n2nc3c(Cl)cc(Cl)cn3c2=O)c(F)cc1C#N [Compound No. A-49, 6,8-Dichloro-2-(4-cyano-2-fluoro-5-propargyloxyphenyl)-1,2,4-triazolo[4,3-a]pyridin-3(2H)-one]					
